In the supplement of paper PMC10307832:

What was measured:
Experiment in all cases: relative viability (nuclei count vs DMSO), 5 days (fraction); higher = more cells survive
AZD5582 + Pictilisib = compound: C[C@@H](C(=O)N[C@@H](C1CCCCC1)C(=O)N2CCC[C@H]2C(=O)N[C@@H]3[C@@H](CC4=CC=CC=C34)OCC#CC#CCO[C@@H]5CC6=CC=CC=C6[C@@H]5NC(=O)[C@@H]7CCCN7C(=O)[C@H](C8CCCCC8)NC(=O)[C@H](C)NC)NC [AZD5582] + CS(=O)(=O)N1CCN(Cc2cc3nc(-c4cccc5[nH]ncc45)nc(N4CCOCC4)c3s2)CC1 [Pictilisib] (partner 1 µM)
Summary of the method: (§1)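 Each reported value is a median over duplicate plates. It expresses relative viability: treated-well nuclei count divided by vehicle-well nuclei count. Lung cancer cell lines in 1536-well plates were dosed by pin tool a day after seeding, alone with one drug or with a fixed anchor-drug dose plus five library-drug doses (not always all listed) in √10 steps, and nuclei were counted after 5 days.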

Temozolomide + Lapatinib = compound: Cn1nnc2c(C(N)=O)ncn2c1=O [Temozolomide] + CS(=O)(=O)CCNCc1ccc(-c2ccc3ncnc(Nc4ccc(OCc5cccc(F)c5)c(Cl)c4)c3c2)o1 [Lapatinib] (partner 2 µM)
Summary of the method: as §1

AZD5582 + Lapatinib = compound: C[C@@H](C(=O)N[C@@H](C1CCCCC1)C(=O)N2CCC[C@H]2C(=O)N[C@@H]3[C@@H](CC4=CC=CC=C34)OCC#CC#CCO[C@@H]5CC6=CC=CC=C6[C@@H]5NC(=O)[C@@H]7CCCN7C(=O)[C@H](C8CCCCC8)NC(=O)[C@H](C)NC)NC [AZD5582] + CS(=O)(=O)CCNCc1ccc(-c2ccc3ncnc(Nc4ccc(OCc5cccc(F)c5)c(Cl)c4)c3c2)o1 [Lapatinib] (partner 2 µM)
Summary of the method: as §1

Temozolomide + Alpelisib = compound: Cn1nnc2c(C(N)=O)ncn2c1=O [Temozolomide] + Cc1nc(NC(=O)N2CCC[C@H]2C(N)=O)sc1-c1ccnc(C(C)(C)C(F)(F)F)c1 [Alpelisib] (partner 2 µM)
Summary of the method: as §1

NCI-H1437
relative viability (AZD5582 + Pictilisib; first compound 0.001581 µM): 0.439
relative viability (AZD5582 + Pictilisib; first compound 0.005 µM): 0.452
relative viability (AZD5582 + Pictilisib; first compound 0.01581 µM): 0.48
relative viability (AZD5582 + Pictilisib; first compound 0.05 µM): 0.409
relative viability (Temozolomide + Lapatinib; first compound 0.2 µM): 0.8
relative viability (Temozolomide + Lapatinib; first compound 0.6325 µM): 0.817
relative viability (Temozolomide + Lapatinib; first compound 2 µM): 0.822
relative viability (Temozolomide + Lapatinib; first compound 6.325 µM): 0.875
relative viability (Temozolomide + Lapatinib; first compound 20 µM): 0.975
relative viability (AZD5582 + Lapatinib; first compound 0.001581 µM): 0.616
relative viability (AZD5582 + Lapatinib; first compound 0.005 µM): 0.759
relative viability (AZD5582 + Lapatinib; first compound 0.01581 µM): 0.687
relative viability (AZD5582 + Lapatinib; first compound 0.05 µM): 0.72
relative viability (Temozolomide + Alpelisib; first compound 0.2 µM): 1.03
relative viability (Temozolomide + Alpelisib; first compound 0.6325 µM): 0.922
relative viability (Temozolomide + Alpelisib; first compound 2 µM): 0.957
relative viability (Temozolomide + Alpelisib; first compound 6.325 µM): 0.953
relative viability (Temozolomide + Alpelisib; first compound 20 µM): 1.05

NCI-H1563
relative viability (AZD5582 + Pictilisib; first compound 0.001581 µM): 0.644
relative viability (AZD5582 + Pictilisib; first compound 0.005 µM): 0.642
relative viability (AZD5582 + Pictilisib; first compound 0.01581 µM): 0.62
relative viability (AZD5582 + Pictilisib; first compound 0.05 µM): 0.729
relative viability (Temozolomide + Lapatinib; first compound 0.2 µM): 0.889
relative viability (Temozolomide + Lapatinib; first compound 0.6325 µM): 0.89
relative viability (Temozolomide + Lapatinib; first compound 2 µM): 0.993
relative viability (Temozolomide + Lapatinib; first compound 6.325 µM): 0.859
relative viability (Temozolomide + Lapatinib; first compound 20 µM): 1
relative viability (AZD5582 + Lapatinib; first compound 0.001581 µM): 0.909
relative viability (AZD5582 + Lapatinib; first compound 0.005 µM): 1.15
relative viability (AZD5582 + Lapatinib; first compound 0.01581 µM): 0.788
relative viability (AZD5582 + Lapatinib; first compound 0.05 µM): 1.64
relative viability (Temozolomide + Alpelisib; first compound 0.2 µM): 0.957
relative viability (Temozolomide + Alpelisib; first compound 0.6325 µM): 1
relative viability (Temozolomide + Alpelisib; first compound 2 µM): 1.01
relative viability (Temozolomide + Alpelisib; first compound 6.325 µM): 0.861
relative viability (Temozolomide + Alpelisib; first compound 20 µM): 0.94

NCI-H1651
relative viability (AZD5582 + Pictilisib; first compound 0.001581 µM): 0.616
relative viability (AZD5582 + Pictilisib; first compound 0.005 µM): 0.656
relative viability (AZD5582 + Pictilisib; first compound 0.01581 µM): 0.539
relative viability (AZD5582 + Pictilisib; first compound 0.05 µM): 0.723
relative viability (Temozolomide + Lapatinib; first compound 0.2 µM): 0.969
relative viability (Temozolomide + Lapatinib; first compound 0.6325 µM): 0.881
relative viability (Temozolomide + Lapatinib; first compound 2 µM): 0.876
relative viability (Temozolomide + Lapatinib; first compound 6.325 µM): 0.754
relative viability (Temozolomide + Lapatinib; first compound 20 µM): 0.934
relative viability (AZD5582 + Lapatinib; first compound 0.001581 µM): 0.862
relative viability (AZD5582 + Lapatinib; first compound 0.005 µM): 1.03
relative viability (AZD5582 + Lapatinib; first compound 0.01581 µM): 0.724
relative viability (AZD5582 + Lapatinib; first compound 0.05 µM): 0.988
relative viability (Temozolomide + Alpelisib; first compound 0.2 µM): 0.966
relative viability (Temozolomide + Alpelisib; first compound 0.6325 µM): 0.941
relative viability (Temozolomide + Alpelisib; first compound 2 µM): 1.03
relative viability (Temozolomide + Alpelisib; first compound 6.325 µM): 0.93
relative viability (Temozolomide + Alpelisib; first compound 20 µM): 0.92

NCI-H1666
relative viability (AZD5582 + Pictilisib; first compound 0.001581 µM): 0.481
relative viability (AZD5582 + Pictilisib; first compound 0.005 µM): 0.48
relative viability (AZD5582 + Pictilisib; first compound 0.01581 µM): 0.413
relative viability (AZD5582 + Pictilisib; first compound 0.05 µM): 0.407
relative viability (Temozolomide + Lapatinib; first compound 0.2 µM): 0.626
relative viability (Temozolomide + Lapatinib; first compound 0.6325 µM): 0.706
relative viability (Temozolomide + Lapatinib; first compound 2 µM): 0.486
relative viability (Temozolomide + Lapatinib; first compound 6.325 µM): 0.495
relative viability (Temozolomide + Lapatinib; first compound 20 µM): 0.536
relative viability (AZD5582 + Lapatinib; first compound 0.001581 µM): 0.488
relative viability (AZD5582 + Lapatinib; first compound 0.005 µM): 0.712
relative viability (AZD5582 + Lapatinib; first compound 0.01581 µM): 0.673
relative viability (AZD5582 + Lapatinib; first compound 0.05 µM): 0.744
relative viability (Temozolomide + Alpelisib; first compound 0.2 µM): 0.925
relative viability (Temozolomide + Alpelisib; first compound 0.6325 µM): 0.951
relative viability (Temozolomide + Alpelisib; first compound 2 µM): 0.808
relative viability (Temozolomide + Alpelisib; first compound 6.325 µM): 0.586
relative viability (Temozolomide + Alpelisib; first compound 20 µM): 0.499

NCI-H1734
relative viability (AZD5582 + Pictilisib; first compound 0.001581 µM): 0.455
relative viability (AZD5582 + Pictilisib; first compound 0.005 µM): 0.514
relative viability (AZD5582 + Pictilisib; first compound 0.01581 µM): 0.451
relative viability (AZD5582 + Pictilisib; first compound 0.05 µM): 0.631
relative viability (Temozolomide + Lapatinib; first compound 0.2 µM): 1.12
relative viability (Temozolomide + Lapatinib; first compound 0.6325 µM): 1.06
relative viability (Temozolomide + Lapatinib; first compound 2 µM): 1.07
relative viability (Temozolomide + Lapatinib; first compound 6.325 µM): 0.955
relative viability (Temozolomide + Lapatinib; first compound 20 µM): 1.05
relative viability (AZD5582 + Lapatinib; first compound 0.001581 µM): 1.03
relative viability (AZD5582 + Lapatinib; first compound 0.005 µM): 1.2
relative viability (AZD5582 + Lapatinib; first compound 0.01581 µM): 0.99
relative viability (AZD5582 + Lapatinib; first compound 0.05 µM): 1.23
relative viability (Temozolomide + Alpelisib; first compound 0.2 µM): 0.7
relative viability (Temozolomide + Alpelisib; first compound 0.6325 µM): 0.638
relative viability (Temozolomide + Alpelisib; first compound 2 µM): 0.747
relative viability (Temozolomide + Alpelisib; first compound 6.325 µM): 0.646
relative viability (Temozolomide + Alpelisib; first compound 20 µM): 0.659

NCI-H1755
relative viability (AZD5582 + Pictilisib; first compound 0.001581 µM): 0.349
relative viability (AZD5582 + Pictilisib; first compound 0.005 µM): 0.424
relative viability (AZD5582 + Pictilisib; first compound 0.01581 µM): 0.306
relative viability (AZD5582 + Pictilisib; first compound 0.05 µM): 0.398
relative viability (Temozolomide + Lapatinib; first compound 0.2 µM): 1.11
relative viability (Temozolomide + Lapatinib; first compound 0.6325 µM): 1.05
relative viability (Temozolomide + Lapatinib; first compound 2 µM): 0.966
relative viability (Temozolomide + Lapatinib; first compound 6.325 µM): 0.979
relative viability (Temozolomide + Lapatinib; first compound 20 µM): 0.98
relative viability (AZD5582 + Lapatinib; first compound 0.001581 µM): 1.01
relative viability (AZD5582 + Lapatinib; first compound 0.005 µM): 1.08
relative viability (AZD5582 + Lapatinib; first compound 0.01581 µM): 0.95
relative viability (AZD5582 + Lapatinib; first compound 0.05 µM): 1.03
relative viability (Temozolomide + Alpelisib; first compound 0.2 µM): 0.972
relative viability (Temozolomide + Alpelisib; first compound 0.6325 µM): 0.952
relative viability (Temozolomide + Alpelisib; first compound 2 µM): 0.853
relative viability (Temozolomide + Alpelisib; first compound 6.325 µM): 0.881
relative viability (Temozolomide + Alpelisib; first compound 20 µM): 0.59

NCI-H1792
relative viability (AZD5582 + Pictilisib; first compound 0.001581 µM): 0.278
relative viability (AZD5582 + Pictilisib; first compound 0.005 µM): 0.345
relative viability (AZD5582 + Pictilisib; first compound 0.01581 µM): 0.28
relative viability (AZD5582 + Pictilisib; first compound 0.05 µM): 0.35
relative viability (Temozolomide + Lapatinib; first compound 0.2 µM): 1.06
relative viability (Temozolomide + Lapatinib; first compound 0.6325 µM): 0.973
relative viability (Temozolomide + Lapatinib; first compound 2 µM): 0.895
relative viability (Temozolomide + Lapatinib; first compound 6.325 µM): 0.899
relative viability (Temozolomide + Lapatinib; first compound 20 µM): 0.861
relative viability (AZD5582 + Lapatinib; first compound 0.001581 µM): 0.862
relative viability (AZD5582 + Lapatinib; first compound 0.005 µM): 0.935
relative viability (AZD5582 + Lapatinib; first compound 0.01581 µM): 0.798
relative viability (AZD5582 + Lapatinib; first compound 0.05 µM): 1.01
relative viability (Temozolomide + Alpelisib; first compound 0.2 µM): 0.535
relative viability (Temozolomide + Alpelisib; first compound 0.6325 µM): 0.749
relative viability (Temozolomide + Alpelisib; first compound 2 µM): 0.677
relative viability (Temozolomide + Alpelisib; first compound 6.325 µM): 0.651
relative viability (Temozolomide + Alpelisib; first compound 20 µM): 0.791

NCI-H1793
relative viability (AZD5582 + Pictilisib; first compound 0.001581 µM): 0.288
relative viability (AZD5582 + Pictilisib; first compound 0.005 µM): 0.311
relative viability (AZD5582 + Pictilisib; first compound 0.01581 µM): 0.299
relative viability (AZD5582 + Pictilisib; first compound 0.05 µM): 0.397
relative viability (Temozolomide + Lapatinib; first compound 0.6325 µM): 0.81
relative viability (Temozolomide + Lapatinib; first compound 2 µM): 0.608
relative viability (Temozolomide + Lapatinib; first compound 6.325 µM): 0.649
relative viability (Temozolomide + Lapatinib; first compound 20 µM): 0.694
relative viability (AZD5582 + Lapatinib; first compound 0.001581 µM): 0.777
relative viability (AZD5582 + Lapatinib; first compound 0.005 µM): 0.898
relative viability (AZD5582 + Lapatinib; first compound 0.01581 µM): 0.592
relative viability (AZD5582 + Lapatinib; first compound 0.05 µM): 0.838
relative viability (Temozolomide + Alpelisib; first compound 0.6325 µM): 0.714
relative viability (Temozolomide + Alpelisib; first compound 2 µM): 0.881
relative viability (Temozolomide + Alpelisib; first compound 6.325 µM): 0.716
relative viability (Temozolomide + Alpelisib; first compound 20 µM): 0.585
